Laboratory results: the NIST ThermoML archive (doi:10.1016/j.jct.2015.12.025)

Key:
[1] = xn = mol fraction of the nth substance listed; details: 102 kPa, Liquid, Vibrating tube method
[2] = refractive index (Na D-line) (dimensionless); xn = mol fraction of the nth substance listed; details: 102 kPa, Liquid, Standard Abbe refractometry

C[Si]1(CCC(F)(F)F)O[Si](C)(CCC(F)(F)F)O[Si](C)(CCC(F)(F)F)O1 (stereo not given) + COc1ccccc1
Details	mass density, 308.15 K [kg/m3]	mass density, 313.15 K [kg/m3]	mass density, 318.15 K [kg/m3]	mass density, 323.15 K [kg/m3]	refractive index, 308.15 K	refractive index, 313.15 K	refractive index, 318.15 K	refractive index, 323.15 K
[1], x1 = 0.0502	1018.9	1013.91	1008.94	1003.9	–	–	–	–
[1], x1 = 0.0999	1050.1	1044.97	1039.74	1034.53	–	–	–	–
[1], x1 = 0.15	1076.1	1070.73	1065.35	1059.95	–	–	–	–
[1], x1 = 0.1999	1097.79	1092.31	1086.77	1081.24	–	–	–	–
[1], x1 = 0.2501	1116.38	1110.76	1105.11	1099.47	–	–	–	–
[1], x1 = 0.2998	1132.25	1126.52	1120.84	1115.01	–	–	–	–
[1], x1 = 0.3498	1146.05	1140.29	1134.47	1128.62	–	–	–	–
[1], x1 = 0.4001	1158.32	1152.45	1146.5	1140.45	–	–	–	–
[1], x1 = 0.4497	1169.15	1163.11	1156.93	1151	–	–	–	–
[1], x1 = 0.4997	1178.65	1172.56	1166.57	1160.21	–	–	–	–
[1], x1 = 0.5453	1186.4	1180.31	1174.14	1168.04	–	–	–	–
[1], x1 = 0.6001	1194.94	1188.71	1182.53	1176.37	–	–	–	–
[1], x1 = 0.6498	1201.9	1195.72	1189.43	1183.1	–	–	–	–
[1], x1 = 0.6995	1208.15	1201.84	1195.66	1189.14	–	–	–	–
[1], x1 = 0.7502	1214.01	1207.72	1201.45	1194.99	–	–	–	–
[1], x1 = 0.8	1219.27	1212.9	1206.52	1200.09	–	–	–	–
[1], x1 = 0.8491	1223.97	1217.59	1211.19	1204.79	–	–	–	–
[1], x1 = 0.8997	1228.56	1222.13	1215.62	1209.23	–	–	–	–
[1], x1 = 0.9497	1232.67	1226.23	1219.73	1213.21	–	–	–	–
[1], x1 = 1	1236.63	1230.05	1223.55	1216.99	–	–	–	–
[2], x1 = 0.0502	–	–	–	–	1.48464	1.48208	1.47955	1.47695
[2], x1 = 0.0999	–	–	–	–	1.4658	1.4633	1.46089	1.45834
[2], x1 = 0.15	–	–	–	–	1.45042	1.44796	1.44565	1.44317
[2], x1 = 0.1999	–	–	–	–	1.43774	1.43532	1.43308	1.43068
[2], x1 = 0.2501	–	–	–	–	1.42699	1.42468	1.42242	1.42006
[2], x1 = 0.2998	–	–	–	–	1.41796	1.41563	1.41345	1.41113
[2], x1 = 0.3498	–	–	–	–	1.41011	1.40783	1.40566	1.40338
[2], x1 = 0.4001	–	–	–	–	1.40327	1.401	1.39886	1.39659
[2], x1 = 0.4497	–	–	–	–	1.39729	1.39509	1.39295	1.39069
[2], x1 = 0.4997	–	–	–	–	1.39198	1.3898	1.38766	1.38549
[2], x1 = 0.5453	–	–	–	–	1.38765	1.38551	1.38335	1.3812
[2], x1 = 0.6001	–	–	–	–	1.38297	1.38081	1.37871	1.37655
[2], x1 = 0.6498	–	–	–	–	1.37914	1.37703	1.37495	1.37279
[2], x1 = 0.6995	–	–	–	–	1.3757	1.37358	1.37151	1.36941
[2], x1 = 0.7502	–	–	–	–	1.3725	1.37039	1.36832	1.36625
[2], x1 = 0.8	–	–	–	–	1.3696	1.36751	1.36547	1.36338
[2], x1 = 0.8491	–	–	–	–	1.36697	1.36492	1.36288	1.36086
[2], x1 = 0.8997	–	–	–	–	1.3645	1.36245	1.36042	1.35837
[2], x1 = 0.9497	–	–	–	–	1.36221	1.36019	1.35818	1.35616
[2], x1 = 1	–	–	–	–	1.36011	1.35808	1.35609	1.35407
